# Results published in patent US11446352B2, “Compositions and methods for inhibiting tumor-induced immune suppression” (priority 2017, dated 2022).
# “Also recorded” adds a separate entry of the source.
# Experiments:
# [1] = system: Hsp90 client proteins, Hsp70, Hsp27; assay: Western blots of cytosols from cell lines treated with 17-AAG or EnnA; format: cell-based, human
# Source text: The first bar indicates 100% folding activity of RRL without inhibitor. PR22 indicates the antibody without PR but with RRL and EnnA. PR represents the antibody (PR22) with PR but without RRL. All other samples have PR22, PR, and RRL without (first bar) or with increased concentration of EnnA. FIGS. 1C-1E are line graphs of cell survival versus EnnA concentration (μM) in breast cancer cell lines Hs578T (FIG. 1C), […] (FIG. 1D) and MDA-MB231 (FIG. 1E) upon treatment with EnnA for 48 and 72 h. […] PR alone (PR), antibody (PR22)+RRL, PR+RRL without inhibitor (RRL), PR+RRL with 1 μM 17-AAG (17AAG) PR+RRL with 10 μM BEAU or EnnA. FIGS. 1G-1I are autoradiographs of Western blots of cytosols from various cell lines treated with 17-AAG (1 μM) or EnnA (3 μM) with antibodies against the specified proteins. FIG. 1J is an autoradiograph showing EnnA causes autophagy in Hs578T and MDA-MB453 cell lines. FIGS. 1K-1N are electron microscopy micrographs showing autophagosomes and reduced mitochondria content in Hs578T cells treated with DMSO or EnnA. FIGS. 1O-1P are fluorescence micrographs showing EnnA causing reduced mitochondria content in Hs578T cells. FIGS. 1Q-1BB are fluorescence micrographs showing mitophagy in Hsp578T cells treated with EnnA as indicated by colocalization of the mitochondria marker Cox4 and the autophagy marker LC3BII.
# E0771 tumors = assay: E0771 tumor model: EnnA versus 17-AAG and combinations with CPA or anti-CD8; format: in vivo, mice
# Procedure: Groups of mice (n=10) were implanted with 50,000 E0771 cells. When tumors were about 150 mm3 in volume (10 days post-implantation), mice were injected every other day with DMSO, EnnA (10 mg/Kg) or 17-AAG (10 mg/Kg). Two extra groups were made. In one group, EnnA was combined with one dose (150 mg/Kg) of cyclophosphamide (CPA) on day 14. In the other EnnA was combined with anti-CD8 antibody (250 μg/mouse) injected on day 18 and 22.
# E0771 murine cells = assay: autophagy in E0771 cells (fluorescence micrographs); format: cell-based
# [2] = system: E0771 tumor microenvironment; assay: analysis of tumors and splenocytes from EnnA-treated mice (Western blot, FACS, immunohistochemistry, immunofluorescence); format: in vivo
# Procedure: FIG. 5A is a line graph of tumor volume (mm^3) versus time (days) of mice injected with 100,000 E0771. Ten days after surgery, mice were divided into two groups: the EnnA group was injected with 10 mg/kg of EnnA. every other day, and the control group received a mixture of 15% DMSO and 20% cremophor in PBS. FIG. 5B is a line graph of body weight versus time (days) of mice treated with DMSO or EnnA. FIG. 5C is autoradiograph of a Western blot of four animals from each group using the indicated specific antibodies. FIG. 5D is a bar graph of % of gated cells treated with DMSO or EnnA showing FACS analysis of tumor cells for PDL1. FIG. 5E-5J is a panel of micrographs showing immunohistochemistry analysis of H&E staining of tumors from control and EnnA mice for analysis of necrotic tissue. FIGS. 5K-5P is a panel of micrographs showing immunohistochemistry analysis of tumors from control and EnnA mice for analysis of immune cells infiltration using anti-CD45 antibody. FIG. 5Q is a bar graph of % of gated cells treated with DMSO showing that EnnA treatment reduces CD4+/Foxp3+ Tregs. FIG. 5R is a bar graph of % of gated cells treated with DMSO or EnnA showing that EnnA treatment reduces CD11b+Gr-1+ MDSCs. FIG. 5S is a bar graph of % of gated cells treated with DMSO or EnnA showing that EnnA treatment reduces the number of CD8+/PD-1+ lymphocytes. FIG. 5T is a bar graph of % of cells treated with DMSO or EnnA showing that EnnA treatment increase the number of GR-1-CD11c+CD103+ lymphocytes.
# FIGS. 8A-8L show immunofluorescent staining of E0771 tumors using anti-CD45 and anti-CD8β antibodies. FIGS. 8M-8T show immunofluorescent staining of E0771 tumors using anti-CD45 and anti-CTLA-4 antibodies. […] FIG. 8V is a bar graph showing the results of FACS analysis of CD8 positive cells in E0771 tumor-bearing mice treated with DMSO, EnnA, αCD8, or EnnA+αCD8. The X axis represents treatment group and the Y axis represents percent CD8 positive cells. FIG. 8W is a model for EnnA inhibition of Hsp 90 machinery and its impacts on the immune suppressive mechanism through PD-1 and IDO.
# 100,000 E0771 cells were surgically implanted in mammary fat pad of 20 mice. Ten days after surgery, mice were divided into two groups: the EnnA group was injected with 10 mg/kg of EnnA every other day, and the control group received a mixture of 15% DMSO and 20% cremophor in PBS.
# [3] = system: Hsp90β on the surface of E0771 and AT3 cells; assay: FACS analysis of Hsp90β expression on the cell surface; format: cell-based, murine; settings: in vitro (E0771, AT3 cell culture) and in vivo (E0771 tumors)
# Source text: FIGS. 2I-2K show FACS analysis of Hsp90β expression on the cell surface of E0771 cells treated with DMSO or EnnA. FIGS. 2L-2N show FACS analysis of the ratio of Hsp90α to Hsp90β expression on the cell surface of E0771 cells treated with DMSO or EnnA. FIGS. 2O-2Q show FACS analysis of Hsp90α expression on the cell surface of E0771 cells treated with DMSO or EnnA. FIG. 2R is a bar graph showing expression of Hsp90β on the surface of AT3 cells treated with DMSO or EnnA. FIG. 2S is a bar graph showing expression of Hsp90α on the surface of AT3 cells treated with DMSO or EnnA. FIGS. 2T-2X show FACS analysis of Hsp90β expression on the surface of E0771 tumor cells treated with mIgG, DMSO, or EnnA.
smiles,measurement,setting,value
"CC[C@H](C)[C@H]1C(=O)O[C@H](C(C)C)C(=O)N(C)[C@@H]([C@@H](C)CC)C(=O)O[C@H](C(C)C)C(=O)N(C)[C@@H]([C@@H](C)CC)C(=O)O[C@H](C(C)C)C(=O)N1C [EnnA, Enniatin A]",stability of Hsp90 client proteins,[1]; EnnA 3 μM,destabilization
same,induction of Hsp27,[1]; MAD-MB-453 cells,slightly induced
same,overexpression of Hsp70,"[1]; all cell lines tested, EnnA 3 μM",does not induce overexpression
same,breast cancer metastasis to the lungs,"E0771 tumors; E0771 tumor bearing mice, H&E lung sections",prevents
same,tumor outcome,E0771 tumors; EnnA 10 mg/Kg combined with one dose (150 mg/Kg) of cyclophosphamide (CPA) on day 14,completely cured
same,tumor growth after CD8 T cell depletion,E0771 tumors; EnnA combined with anti-CD8 antibody (250 μg/mouse) on day 18 and 22,restores an aggressive tumor growth; also recorded: rapid regrowth of tumors
same,time mice remained tumor-free after the end of EnnA treatment,E0771 tumors; EnnA/CPA-treated mice,2 months
same,anti-tumor efficacy compared with 17-AAG,E0771 tumors; each 10 mg/Kg every other day,more efficacious than 17-AAG
same,autophagy,E0771 murine cells,induces autophagy
same,PD-1 expression of infiltrating CD8+ lymphocytes,[2]; FACS,lower levels
same,number of CD4+Foxp3+ T regulatory cells (Tregs) in tumors,[2]; FACS,significantly reduced
same,number of MDSCs in tumors,"[2]; FACS, CD11b+Gr-1+",significantly reduced
same,number of GR-1-CD11c+CD103+ lymphocytes,"[2]; FACS, FIG. 5T",increase
same,tumor necrosis,[2]; H&E staining,heavily necrotic
same,Hsp90 client proteins in tumors,[2]; Western blot of tumors from treated mice,destabilized
same,infiltration of tumors by T lymphocytes,[2]; anti-CD45 immunohistochemistry,massive infiltration
same,"infiltration of tumors with CD45+, CD8β+ T cells",[2]; immunofluorescent staining,higher infiltration
same,proportion of CD8β cells in spleenocytes,"[2]; tumor bearing animals, FACS",increase
same,PD-L1 and IDO in vivo,"[2]; tumors, Western blot and FACS",destabilizes
same,exposure of Hsp90β to the surface of cancer cells,[3],induces exposure
